These results are taken from patent US10927086B2, “Substituted sulfoximine compounds as indoleamine 2,3-dioxygenase (IDO) inhibitors” (Merck Sharp & Dohme Corp., priority 2017, dated 2021).

SMILES strings stand for the structures. pIC50: −log10 of the molar value.

The target of experiment [1] is T1, IDO1 (Homo sapiens (Human), UniProt P14902). The experiment can be described thus: IDO1 Enzyme Assay. The settings on record: HIS-tagged recombinant IDO1, fluorescence readout. The class given is biochemical. The procedure:
Compounds to be tested were serially diluted in ten 3-fold steps in DMSO starting from 10 mM DMSO stocks. Compound dilutions or DMSO alone were then dispensed from the dilution plate into a Greiner black 384-well assay plate (catalog #781086) using an Echo 555 acoustic liquid handler (Labcyte).
HIS-tagged IDO1 protein was recombinantly expressed in Escherichia coli using ZYP5052 autoinduction media supplemented with 500 μM delta aminolevulinic acid for 48 h at 16° C. IDO1 protein was purified using Ni^2+-affinity resin and size exclusion chromatography. Purified protein was then diluted in assay buffer (50 mM Tris pH 7.0, 1% glycerol, 20 μM methylene blue, 0.05% Tween-20, 20 mM sodium ascorbate, 100 units/mL catalase to obtain a final IDO1 concentration of 40 nM. IDO1 solution […] or buffer alone ([…]) were dispensed to wells of the assay plate using a BioRAPTR liquid dispenser (Beckman Coulter). Assay plates containing compound and IDO1 enzyme were incubated at RT for 30 min. Afterwards, 10 μL of 400 μM tryptophan in assay buffer were added to each well of the assay plate using a BioRAPTR liquid dispenser. Plates were incubated at RT for 60 min and reactions were quenched by addition of 10 μL of 0.5 M methyl isonipecotate in dimethyl sulfoxide. Plates were sealed and incubated at 37° C. for 4 h or 50° C. for 2 h. The plates are allowed to cool and then centrifuged for 1 min at 1000×g. The resulting fluoresence was measured in an Envision plate reader (Perkin Elmer) with a 400/25 nm excitation filter and an 510/20 nm emission filter.
Potencies were calculated by linear least squares fit to the four parameter logistic IC50 equation.
Target sequence in this assay (P14902 whole entry, species assumed): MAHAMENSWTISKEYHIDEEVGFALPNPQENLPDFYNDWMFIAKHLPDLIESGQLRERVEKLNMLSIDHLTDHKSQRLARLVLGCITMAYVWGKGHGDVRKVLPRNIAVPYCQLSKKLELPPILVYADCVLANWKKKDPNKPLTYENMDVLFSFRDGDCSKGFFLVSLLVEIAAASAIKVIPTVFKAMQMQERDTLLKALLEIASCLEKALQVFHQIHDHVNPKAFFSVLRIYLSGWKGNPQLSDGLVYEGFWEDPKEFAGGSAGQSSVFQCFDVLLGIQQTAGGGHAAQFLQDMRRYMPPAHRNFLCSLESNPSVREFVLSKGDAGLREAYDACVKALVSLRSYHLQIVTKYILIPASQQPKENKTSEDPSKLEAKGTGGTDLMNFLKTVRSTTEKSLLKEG

The target in experiment [2] is T1, IDO1. The experiment in a line: IDO1 Cellular Assay in Hela Cells Stimulated with IFNγ. The class given is cell-based. The settings on record: about 48 hours, read-out: IDO1 HELA Cell Assay, IC50. As for the experimental part:
Hela cells were cultured in complete Hela culture medium (90% EMEM, 10% heat-inactivated fetal bovine serum) and expanded to about 1×10^9 cells. The cells were then collected and frozen down at 10×10^6 cells/vial in 1 mL frozen medium (90% complete Hela culture medium, 10% DMSO)
Compounds to be tested were serially diluted in ten 3-fold steps in DMSO starting from 10 mM DMSO stocks in Echo low volume plate(s). Compound dilutions or DMSO alone were then dispensed from the dilution plate(s) into Greiner black 384-well assay plate(s) (catalog #781086, 50 nL/well) using an Echo 550 acoustic liquid handler (Labcyte).
Frozen Hela cells were thawed and transferred into Hela assay medium (99% complete Hela culture medium, 1% Pen/Strep) with 20 mL medium/vial of cells. The cells were spun down at 250 g in a table top centrifuge for 5 min and suspended in same volume of Hela assay medium. The cells were then counted and adjusted to a density of 2×10^5 cells/ml in Hela assay medium. Sterile L-tryptophan were added to the cells with final concentration of 300 uM L-tryptophan. A small aliquot (2 mL/plate) of Hela cells were set aside and were not treated with IFNγ, to serve as the Max-E control. The rest of Hela cells were added with sterile IFNγ (Cat #285-IF, R & D systems) with a final concentration of 100 ng/mL.
Hela cells with and without IFNγ were dispensed to the respective wells of 384-well assay plates containing the compounds. The plates were incubated for about 48 hours at a 37° C., 5% CO2 incubator. Afterwards, 12 μL of 0.5 M methyl isonipecotate in dimethyl sulfoxide were added into each well and the plates were sealed and incubated at 37° C. without CO2 overnight. The plates were centrifuged for 1 min at 200×g. The resulting fluorescence was measured in a Spectramax plate reader (Molecular Devices) with a 400 nm excitation filter and a 510 nm emission filter.
The fluorescence intensity of each well was corrected for the background observed in wells with non-IFNγ-treated cells and was expressed as a fraction of the intensity observed in wells of IFNγ-treated cells and DMSO only. Potencies were calculated by linear least squares fit to the four parameter logistic IC50 equation.
Target sequence in this assay (P14902 whole entry): as the sequence (P14902 whole entry, species assumed) above

The target of experiment [3] is T1, IDO1. The experiment in a line: IDO1 Human Whole Blood Assay. The class given is cell-based. The note with it: LPS and IFNγ, 18 h, kynurenine by LC/MS/MS. The procedure: Compounds to be tested were serially diluted in ten 3-fold steps in DMSO starting from 10 mM. 3 μL of compound dilutions or DMSO alone were then dispensed from the dilution plate into a polypropylene 96-well assay plate containing 97 μL of RPMI using an Echo 555 acoustic liquid handler (Labcyte). LPS and IFNγ was prepared in RPMI to a 10λ of final conc. (1000 ng/mL), final concentration is 100 ng/mL.
Human whole blood was drawn in sodium heparin coated tubes from healthy internal donors. Two hundred forty μL of blood was transferred to each of the wells of a v-bottom 96 well plate. Thirty μL of compound was transferred from intermediate dilution plate, and incubated for 15 min. […] from stimulants was then transferred to blood and mixed thoroughly. Plate was covered with breathable membrane and incubated at 37° C. for overnight (18 h).
On day 2 isotope labeled standard of kynurenine and tryptophan was made in water at 10× concentration and 30 μL was added to the blood at 3 μM final concentration. The assay plates were centrifuged at 300×G for 10 min with no brake to separate plasma from red blood cells. Sixty μL of plasma samples was removed without disturbing red blood cells.
Plasma was diluted with RPMI in 1:1 ratio and proteins were precipitated out with two volume of Acetonitrile. The plates was centrifuged at 4000×G for 60 min. Twenty μL of supernatant was carefully transferred to a 384 well plate contain 40 μL of 0.1% formic acid in water and analyzed by LC/MS/MS.
LC/MS/MS analyses were performed using Thermo Fisher's LX4-TSQ Quantum Ultra system. This system consists of four Agilent binary high-performance liquid chromatography (HPLC) pumps and a TSQ Quantum Ultra triple quadruple MS/MS instrument. For each sample, 5 μL were injected onto an Atlantis T3 column (2.1 mm×150 mm, 3 μm particle size) from Waters. The mobile phase gradient pumped at 0.8 mL/min was used to elute the analytes from the column at 25° C. The elution started at 0% B increasing linearly to 25% B at 6.5 min, holding at 25% for 1 min, re-equilibrating to 10 min. Mobile phase A consisted of 0.1% formic acid in water. Mobile phase B consisted of 0.1% of formic acid in acetonitrile. Data was acquired in positive mode using a HESI interface. The operational parameters for the TSQ Quantum Ultra instrument were a spray voltage of 4000 V, capillary temperature of 380° C., vaporizer temperature 400° C., shealth gas 60 arbitrary units, Aux gas 20 arbitrary units, tube lens 85 and collision gas 1.2 mTorr. SRM chromatograms of kynurenine (QI: 209.2>Q3:94.0) and internal standard (Q1: 215.3>Q3:98.2) were collected for 90 sec. The peak area was integrated by Xcalibur Quan software. The ratios between the kynurenine generated in the reaction and 2D6-Kynurenine spiked-in internal standard were used to generate percentage inhibition and IC50 values. Compounds were titrated and IC50's were calculated by 4 parameter sigmoidal curve fitting formula.
Target sequence in this assay (P14902 whole entry): as the sequence (P14902 whole entry, species assumed) above

In general, pIC50 refers to −log10 of the IC50, conventionally taken in molar units.

As to `N=S1(=O)CC(Nc2nonc2/C(=N/O)N[C@H]2Cc3ccc(F)cc32)C1` (single isomer, unassigned) [Example 3], the pIC50 in experiment [1] is 6.92; in experiment [2], 6.96; in experiment [3], 5.74.
For `N=S1(=O)CC(Nc2nonc2/C(=N/O)N[C@H]2Cc3ccc(F)cc32)C1` (single isomer, unassigned) [Example 4], the figures for the pIC50 in experiment [1], in experiment [2] and in experiment [3] were 7.04, 6.79 and 5.72, respectively.
For `N=S1(=O)CC(CNc2nonc2/C(=N/O)N[C@H]2Cc3ccc(F)cc32)C1` (single isomer, unassigned) [Example 5], in that order: 6.99, 6.77 and 6.39.
With `N=S1(=O)CC(CNc2nonc2/C(=N/O)N[C@H]2Cc3ccc(F)cc32)C1` (single isomer, unassigned) [Example 6], the pIC50 in experiment [1] was 7.29; in experiment [2] it was 7.04; in experiment [3], 6.31.
The corresponding values for `CS(=N)(=O)N1CC(O)(CNc2nonc2/C(=N/O)N[C@H]2Cc3ccc(F)cc32)C1` (single isomer, unassigned) [Example 36] are 7.07, 6.83 and 5.79.
Regarding `CS(=N)(=O)N1CC(Oc2nonc2/C(=N/O)N[C@H]2Cc3ccc(F)cc32)C1` (single isomer, unassigned) [Example 41], the results for the pIC50 in experiment [1], in experiment [2] and in experiment [3] were 7.03, 6.93 and 6.65, respectively.
Take `CS(=N)(=O)N1CCO[C@@H](CNc2nonc2/C(=N\O)N[C@@H]2Cc3ccc(F)cc32)C1` (single isomer, unassigned) [Example 63]: the pIC50 in experiment [1] is 7.01; in experiment [2] it was 7.14; in experiment [3] it was 5.92.
The corresponding values for `C[S@](=N)(=O)CCNc1nonc1/C(=N/O)N[C@H]1Cc2ccc(F)cc21` [Example 1, N—((S)-4-fluorobicyclo[4.2.0]octa-1(6),2,4-trien-7-yl)-N′-hydroxy-4-((2-((S)—S-methylsulfonimidoyl)ethyl)amino)-1,2,5-oxadiazole-3-carboximidamide] are 7.07, 7.25 and 6.37.
For the compound `C[S@@](=N)(=O)CCNc1nonc1/C(=N/O)N[C@H]1Cc2ccc(F)cc21` [Example 2, N—((S)-4-fluorobicyclo[4.2.0]octa-1(6),2,4-trien-7-yl)-N′-hydroxy-4-((2-((R)—S-methylsulfonimidoyl)ethyl)amino)-1,2,5-oxadiazole-3-carboximidamide], the pIC50 in experiment [1] is 7.06; in experiment [2], 7.22; in experiment [3] it was 6.41.
Take `CS(=N)(=O)NCCNc1nonc1/C(=N/O)N[C@H]1Cc2ccc(F)cc21` (stereo partly drawn) [Example 11, N—((S)-4-fluorobicyclo[4.2.0]octa-1(6),2,4-trien-7-yl)-N′-hydroxy-4-((2-(methylsulfonoamidimidamido)ethyl)amino)-1,2,5-oxadiazole-3-carboximidamide]: the pIC50 is 7.41 in experiment [1] and 7.56 in experiment [2].
As for `CS(=N)(=O)CCNC(=O)CNc1nonc1/C(=N/O)N[C@H]1Cc2ccc(F)cc21` (stereo partly drawn) [Example 12, 2-((4-(N-((S)-4-fluorobicyclo[4.2.0]octa-1(6),2,4-trien-7-yl)-N′-hydroxycarbamimidoyl)-1,2,5-oxadiazol-3-yl)amino)-N-(2-(S-methylsulfonimidoyl)ethyl)acetamide], the pIC50 in experiment [1] is 7.31; in experiment [2], 6.94.
Consider `CS(=O)(/C=C/Nc1nonc1/C(=N/O)N[C@H]1Cc2ccc(F)cc21)=NC#N` (stereo partly drawn) [Example 15, 4-(((E)-2-(N-cyano-S-methylsulfonimidoyl)vinyl)amino)-N-((S)-4-fluorobicyclo[4.2.0]octa-1(6),2,4-trien-7-yl)-N′-hydroxy-1,2,5-oxadiazole-3-carboximidamide], for which the pIC50 was 6.78 in experiment [1], 7.70 in experiment [2] and 6.06 in experiment [3].
For the compound `CN=S(C)(=O)CCNC(=O)CNc1nonc1/C(=N/O)N[C@H]1Cc2ccc(F)cc21` (stereo partly drawn) [Example 40, N-[2-(N,S-dimethylsulfonimidoyl)ethyl]-N~2~-(4-{N-[(7S)-4-fluorobicyclo[4.2.0]octa-1,3,5-trien-7-yl]-N′-hydroxycarbamimidoyl}-1,2,5-oxadiazol-3-yl)glycinamide], the pIC50 in experiment [1] is 6.63; in experiment [2] it was 6.70.
Take `CS(=N)(=O)NCCCCNc1nonc1/C(=N/O)N[C@H]1Cc2ccc(F)cc21` (stereo partly drawn) [Example 53, N-[(7S)-4-fluorobicyclo[4.2.0]octa-1,3,5-trien-7-yl]-N′-hydroxy-4-({4-[(S-methylsulfonimidoyl)amino]butyl}amino)-1,2,5-oxadiazole-3-carboximidamide]: the negative logarithm of the IC50 (pIC50) in experiment [1] is 7.16; in experiment [2], 7.35.
As to `CN(CCNc1nonc1/C(=N\O)N[C@H]1Cc2ccc(F)cc21)S(C)(=N)=O` (stereo partly drawn) [Example 54, N-[(7S)-4-fluorobicyclo[4.2.0]octa-1,3,5-trien-7-yl]-N′-hydroxy-4-({2-[methyl(S-methylsulfonimidoyl)amino]ethyl}amino)-1,2,5-oxadiazole-3-carboximidamide], the pIC50 is 6.97 in experiment [1] and 6.99 in experiment [2].
